No end group written: not given here.
What was measured:
USP7-CTD = biological target: T1, USP7-CTD (Homo sapiens, UniProt Q93009); assay: GST pull-down, USP7-CTD; type: binding
T1 construct: USP7-CTD (535–1102); His tag (inferred from nickel-NTA purification; vector p15TV-L); made in house; host or cells: E. coli BL21(DE3)mgk
Description: (§1) Fragments representing USP7-CTD Ubl domains were prepared using ligation independent cloning with In-Fusion (Clontech) in p15TV-L. The boundaries of the Ubl domain constructs are Ubl12 (535–776), Ubl123 (535–889), Ubl345 (776–1102), Ubl45 (886–1102) and USP7-CTD (535–1102). Plasmids expressing USP7-NTD, USP7, and myc-USP7 WT (pCANmycUSP7) were described previously. USP7 mutants E759A, D762A, D764A and D762A/D764A in Ubl123 were synthesized (Genscript) and inserted into the pET15b plasmid. USP7 mutants E759A, D762A, D764A, D762A/D764A and D762R/D764R in USP7-CTD were prepared by ACGT Corporation. The D762R/D764R mutant was then sub-cloned into wild-type pCANmycUSP7 for co-IP assays. The mammalian ICP0 expression construct pCI-110 ICP0 was obtained from Roger Everett.
(§2) The ICP0, GMPS and UHRF1 WT and mutant peptides were cloned into pGEX-2TK and expressed in E. coli BL21(DE3). GST-ICP0 594–775 was obtained from Roger Everett. The GST-ICP0 or GST-GMPS or GST-UHRF1 or GST-ICP0 594–775 cell pellets from 500 ml of LB broth were re-suspended with PBS and lysed using sonication. The cleared lysates were applied to 500 μl of equilibrated glutathione-sepharose beads and incubated with rocking for 60 min at 4°C. Unbound proteins were removed by washing with PBS. Bound proteins were eluted with 50 mM Tris pH 8.0 and 100 mM NaCL containing 30 mM reduced glutathione. Equal amounts (250 μg) of the various USP7 proteins were incubated with 250 μg of the GST-ICP0 or GST-GMPS or GST-UHRF1 or GST-ICP0 594–775 peptides in 50 mM Tris pH 8.0, 100 mM NaCl, 5 mM DTT, 5% glycerol, 0.1 mM Benzamidine and 0.05 mM PMSF, applied to equilibrated glutathione-sepharose beads and incubated overnight with rocking at 4°C. After extensive washing, bound proteins were eluted with 50 mM Tris pH 8.0 and 100 mM NaCl containing 30 mM reduced glutathione.

USP7-CTD mutant D762A = assay: GST pull-down, USP7-CTD D762A; type: binding, human
Description: as §1, §2

[1] = tested on: USP7-CTD mutant D762A/D764A; assay: GST pull-down, USP7-CTD D762A/D764A; type: binding, human
Description: as §1, §2

USP7 Ubl123 = biological target: T2, USP7 Ubl123 (Homo sapiens, UniProt Q93009); assay: GST pull-down, Ubl123; type: binding; conditions: for Binding of mutant GST-ICP0 peptides to Ubl123: mutations within ICP0 615–629, Fig 3D
T2 construct: Ubl123 (535–889); His tag (inferred from nickel-NTA purification; vector p15TV-L); made in house; host or cells: E. coli BL21(DE3)mgk
T2 sequence (Q93009 535-889): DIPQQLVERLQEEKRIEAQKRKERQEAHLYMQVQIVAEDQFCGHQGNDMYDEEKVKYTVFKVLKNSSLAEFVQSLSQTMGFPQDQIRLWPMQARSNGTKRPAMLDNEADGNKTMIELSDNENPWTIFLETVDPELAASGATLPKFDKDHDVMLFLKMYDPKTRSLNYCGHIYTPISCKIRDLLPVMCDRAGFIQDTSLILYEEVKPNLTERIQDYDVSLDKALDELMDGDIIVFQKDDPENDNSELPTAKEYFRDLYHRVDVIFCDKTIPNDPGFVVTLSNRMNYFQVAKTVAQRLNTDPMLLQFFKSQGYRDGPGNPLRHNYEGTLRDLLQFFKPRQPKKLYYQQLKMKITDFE
Description: as §1, §2

FL-USP7 = assay: GST pull-down, USP7-FL; type: binding, human
Description: The USP7 binding region is found within ICP0 residues 594–633 and mutagenesis studies have shown that K620 is essential for the interaction. In order to facilitate crystallization and structure determination, we set out to identify a shorter peptide that is capable of binding to USP7. To this end, a series of overlapping GST-ICP0 fusions (591–605, 595–609, 599–613, 603–617, 607–621, 611–625, 615–629, 619–633) were prepared (see Fig 1A for sequence details) and used in GST pull-down assays. […] Overall, our GST pull-down assays identified ICP0 residues between 619 and 629 as important mediators of USP7 binding in agreement with a previous study.
(§3) Next we determined which region of USP7-CTD interacted with the ICP0 615–629 peptide. FL-USP7, USP7-CTD as well as Ubl12, Ubl123, Ubl345 and Ubl45 (Fig 1B) were used as prey in GST pull-down assays using GST-ICP0 615–629. FL-USP7 and USP7-CTD were used as positive controls while GST alone and USP7-NTD were used as negative controls.
as §2

Ubl123 mutant E759A = biological target: T3, Ubl123 mutant E759A (Homo sapiens, UniProt Q93009, E759A); assay: GST pull-down, Ubl123 E759A; type: binding; conditions: Fig 3F
T3 construct: Ubl123 (535–889); (vector pET15b); made in house; host or cells: E. coli BL21(DE3)mgk
T3 sequence (Q93009 535-889 E759A): as the sequence (Q93009 535-889) above, with E225A counted along it
Description: as §1
(§4) The ICP0, GMPS and UHRF1 WT and mutant peptides were cloned into pGEX-2TK and expressed in E. coli BL21(DE3). GST-ICP0 594–775 was obtained from Roger Everett. The GST-ICP0 or GST-GMPS or GST-UHRF1 or GST-ICP0 594–775 cell pellets from 500 ml of LB broth were re-suspended with PBS and lysed using sonication. The cleared lysates were applied to 500 μl of equilibrated glutathione-sepharose beads and incubated with rocking for 60 min at 4°C. Unbound proteins were removed by washing with PBS. Bound proteins were eluted with 50 mM Tris pH 8.0 and 100 mM NaCL containing 30 mM reduced glutathione. […]

USP7-NTD = assay: GST pull-down, USP7-NTD; type: binding, human; conditions: USP7 domain mapping, Fig 1B/1E, listed as GST-ICP0 615–629
Text: as §3, §2

USP7 Ubl45 = assay: GST pull-down, Ubl45; type: binding, human; conditions: USP7 domain mapping, Fig 1B/1E, listed as GST-ICP0 615–629
Description: as §1, §4

USP7-CTD mutant E759A = assay: GST pull-down, USP7-CTD E759A; type: binding, human
Description: as §1, §4

Ubl123 mutant D764A = biological target: T4, Ubl123 mutant D764A (Homo sapiens, UniProt Q93009, D764A); assay: GST pull-down, Ubl123 D764A; type: binding; conditions: Fig 3F
T4 construct: Ubl123 (535–889); (vector pET15b); made in house; host or cells: E. coli BL21(DE3)mgk
T4 sequence (Q93009 535-889 D764A): as the sequence (Q93009 535-889) above, with D230A counted along it
Description: as §1, §4

USP7-CTD mutant D764A = assay: GST pull-down, USP7-CTD D764A; type: binding, human
Description: as §1, §4

USP7 Ubl12 = biological target: T5, USP7 Ubl12 (Homo sapiens, UniProt Q93009); assay: GST pull-down, Ubl12; type: binding; conditions: USP7 domain mapping, Fig 1B/1E, listed as GST-ICP0 615–629
T5 construct: Ubl12 (535–776); His tag (inferred from nickel-NTA purification; vector p15TV-L); made in house; host or cells: E. coli BL21(DE3)mgk
T5 sequence (Q93009 535-776): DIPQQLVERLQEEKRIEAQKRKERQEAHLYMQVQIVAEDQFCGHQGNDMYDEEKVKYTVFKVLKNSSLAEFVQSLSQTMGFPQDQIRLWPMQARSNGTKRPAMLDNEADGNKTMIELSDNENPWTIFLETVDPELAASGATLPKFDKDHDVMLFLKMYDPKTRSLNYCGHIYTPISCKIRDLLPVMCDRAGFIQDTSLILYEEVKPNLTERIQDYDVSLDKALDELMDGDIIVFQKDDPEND
Description: as §1, §4

[2] = biological target: T6, Ubl123 mutant D762A/D764A (Homo sapiens, UniProt Q93009, D762A/D764A); assay: GST pull-down, Ubl123 D762A/D764A; type: binding; conditions: Fig 3F
T6 construct: Ubl123 (535–889); (vector pET15b); made in house; host or cells: E. coli BL21(DE3)mgk
T6 sequence (Q93009 535-889 D762A/D764A): as the sequence (Q93009 535-889) above, with D228A, D230A counted along it
Description: as §1, §4

USP7 Ubl345 = assay: GST pull-down, Ubl345; type: binding, human; conditions: USP7 domain mapping, Fig 1B/1E, listed as GST-ICP0 615–629
Description: as §1, §4

Ubl123 mutant D762A = biological target: T7, Ubl123 mutant D762A (Homo sapiens, UniProt Q93009, D762A); assay: GST pull-down, Ubl123 D762A; type: binding; conditions: Fig 3F
T7 construct: Ubl123 (535–889); (vector pET15b); made in house; host or cells: E. coli BL21(DE3)mgk
T7 sequence (Q93009 535-889 D762A): as the sequence (Q93009 535-889) above, with D228A counted along it
Description: as §1, §4

[3] = GST pull-down, USP7 domain mapping, Fig 1B/1E, listed as GST-ICP0 615–629

T1 sequence (Q93009 535-1102): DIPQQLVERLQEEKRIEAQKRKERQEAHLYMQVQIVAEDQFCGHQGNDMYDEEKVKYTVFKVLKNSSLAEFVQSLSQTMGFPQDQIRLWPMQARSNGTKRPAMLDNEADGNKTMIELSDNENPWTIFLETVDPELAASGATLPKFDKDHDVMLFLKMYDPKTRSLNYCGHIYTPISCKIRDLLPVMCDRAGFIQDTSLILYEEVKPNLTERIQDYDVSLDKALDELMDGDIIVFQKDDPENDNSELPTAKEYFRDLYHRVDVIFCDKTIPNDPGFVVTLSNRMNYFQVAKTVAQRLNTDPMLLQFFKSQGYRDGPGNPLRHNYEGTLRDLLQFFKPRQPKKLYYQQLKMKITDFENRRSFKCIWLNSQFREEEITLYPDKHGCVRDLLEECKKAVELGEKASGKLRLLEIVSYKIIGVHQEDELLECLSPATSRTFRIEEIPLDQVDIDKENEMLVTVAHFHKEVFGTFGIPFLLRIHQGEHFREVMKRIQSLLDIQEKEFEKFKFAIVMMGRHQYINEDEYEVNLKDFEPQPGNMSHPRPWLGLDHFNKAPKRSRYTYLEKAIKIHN

Row | Substance | Interaction with USP7-CTD (overlapping GST-ICP0 peptides) (USP7-CTD; GST fusions 250 μg + USP7-CTD 250 μg, 50 mM Tris pH 8.0, 100 mM NaCl, 5 mM DTT, 5% glycerol, overnight 4°C, Coomassie stained gel, Fig 1A/1D, symbols not defined) | Interaction with ICP0 615-629: USP7-CTD (USP7-CTD; [3]) | Binding to USP7-CTD mutant D762A (USP7-CTD mutant D762A) | Binding to USP7-CTD mutant D762A/D764A [1] | Interaction with ICP0 615-629: Ubl123 (USP7 Ubl123; USP7 domain mapping, Fig 1B/1E, listed as GST-ICP0 615–629) | Interaction with USP7-FL (overlapping GST-ICP0 peptides) (FL-USP7; GST fusions 250 μg + USP7 250 μg, 50 mM Tris pH 8.0, 100 mM NaCl, 5 mM DTT, 5% glycerol, overnight 4°C, Coomassie stained gel, Fig 1A/1C, symbols not defined) | Interaction with ICP0 615-629: USP7-FL (FL-USP7; [3]) | Binding to Ubl123 mutant E759A (Ubl123 mutant E759A) | Interaction with ICP0 615-629: USP7-NTD (USP7-NTD) | Interaction with ICP0 615-629: Ubl45 (USP7 Ubl45) | Binding to USP7-CTD mutant E759A (USP7-CTD mutant E759A) | Binding to Ubl123 mutant D764A (Ubl123 mutant D764A) | Binding to USP7-CTD mutant D764A (USP7-CTD mutant D764A) | Interaction with ICP0 615-629: Ubl12 (USP7 Ubl12) | Binding to Ubl123 mutant D762A/D764A [2] | Interaction with ICP0 615-629: Ubl345 (USP7 Ubl345) | Binding to Ubl123 mutant D762A (Ubl123 mutant D762A) | Binding of mutant GST-ICP0 peptides to Ubl123 (USP7 Ubl123)
1 | PRGPRKCARKTRHAE [ICP0 615–629, GST-ICP0 fusion of ICP0 residues 615–629] | strongest interaction | FL-USP7 as well as USP7-CTD but not USP7-NTD or GST alone interacted | Binding was abolished | Binding was abolished | interacted | strongest interaction | FL-USP7 as well as USP7-CTD but not USP7-NTD or GST alone interacted | Binding was abolished | not USP7-NTD | no interaction | Binding was abolished | Binding was abolished | Binding was abolished | interacted | Binding was abolished | no interaction | Binding was abolished | 
2 | R619A/K620A (PRGPAACARKTRHAE; also: GST fusion partner not in chain) |  |  |  |  |  |  |  |  |  |  |  |  |  |  |  |  |  | lacked detectable binding
3 | R623A/K624A (PRGPRKCAAATRHAE; also: GST fusion partner not in chain) |  |  |  |  |  |  |  |  |  |  |  |  |  |  |  |  |  | lacked detectable binding

From PMC4457826 (PLoS Pathogens, 2015)
